The numbers were not newly measured in patent publication US12569533B2, “Bruising and filler compositions and methods for use” (Alastin Skincare, Inc., priority 2021, dated 2026), which cites them from elsewhere.

For this data set, the system named is hyaluronic acid level. The note with it: ex vivo human skin model.

Structures are written as SMILES.

As to `CCCCCCCC(=O)CCc1ccc(O)c(OC)c1` [Hydroxymethoxyphenyl decanone], the “stimulation of dermal hyaluronic acid level versus placebo” value (dermal) is given as 259%. The “stimulation of epidermal hyaluronic acid level versus placebo” value (epidermal) was 198%.
